The text below walks through data of EP1695704A1, “Derivatives of aryl (or heteroaryl) azolylcarbinols for the treatment of fibromyalgia” (LABORATORIOS DEL DR. ESTEVE, S.A., priority 2005, dated 2006).

Each structure is given as a SMILES string.

Assay type in all cases: in vivo
In test [1] the test system is Unilateral ligature of the sciatic nerve. Nature of the test: Neuropathic pain, Bennet model, thermal response thresholds. Particulars: rats with sciatic nerve ligature; dose-effect study; Figure 2. The text has this:
Neuropathic Pain - Dose-effect study of Example 1 Phase I (Bennet model): Unilateral ligature of the sciatic nerve (thermal response thresholds)
According to the Model described by Bennet (Bennet and Xie, Pain 1988, 33, 87-107) a well established model for neuropathic pain, rats were operated with the following surgical procedure:
(§1) Rats were anaesthesized using Pentobarbital. Then the skin was incised. Following that a sciatic nerve ligature was placed and the incision was closed with silk thread.
(§2) In Sham-operated control animals the identical surgical procedures were followed, but the nerve was not ligatured.

The test system of test [2] is ptosis by reserpine in mice. Nature of the test: Depression, Reserpine test. Particulars: Mus musculus, po. The protocol: Depression, Reserpine test
Mice were prepared according to the Model described by C.J.E. Niemegeers "Antagonism of Reserpine-like activity" in "Antidepressants", Ed. by S. Fielding, Futura Publishing Co., New York 1975. Pags 73-98 and Garattini S. et al. "Antagonists of Reserpine-induced eyelid ptosis" Med.Exp. 3 : 315-320 (1960):
The inhibition shown by the compound according to example 1 in ptosis by reserpine in mice was: […]

A further test has as its system Mice. Nature of the test: Depression, Mice tail Suspension. Particulars: Mus musculus, po. Here is the method: Depression, Mice tail Suspension
Mice were prepared according to the Model described by
The inhibition shown by the compound according to example 1 was: […]

Test [3] has as its system Unilateral ligature of the sciatic nerve. The experiment in a line: Neuropathic pain, Bennet model, mechanical response thresholds. Particulars: rats with sciatic nerve ligature; dose-effect study; Figure 1.
Source text: Neuropathic Pain - Dose-effect study of Example 1 Phase I (Bennet model): Unilateral ligature of the sciatic nerve (mechanical response thresholds)
According to the Model described by Bennet (Bennet and Xie, Pain 1988, 33, 87-107) a well established model for neuropathic pain, rats were operated with the following surgical procedure,
as §1, §2

For `CN(C)CCOC(c1ccccc1)c1ccnn1C` (racemic) [Example 1, (±)-5-{α-[2-(dimethylamino)ethoxy]benzyl}-1-methyl-1H-pirazole], in test [1], the “effect on struggle latency in a low temperature thermal response threshold” value is listed as “clear dose-dependent effect”. Further, the ED50 in test [2] worked out at 26.2 mg/kg; in the test on Mice it was 17 mg/kg. Also, the values for the inhibition at 10 mg/kg (in test [2] (dose 10 mg/kg p.o.); with Mice (dose 10 mg/kg p.o.)) were 21% and 38%, respectively. Also, the inhibition at 20 mg/kg was found to be 47% in test [2] (dose 20 mg/kg p.o.) and 54% in the test on Mice (dose 20 mg/kg p.o.). For the same molecule, the inhibition at 40 mg/kg worked out at 75% in test [2] (dose 40 mg/kg p.o.) and 71% with Mice (dose 40 mg/kg p.o.). The inhibition at 80 mg/kg in test [2] (dose 80 mg/kg p.o.) amounted to 75%; with Mice (dose 80 mg/kg p.o.), 70%. The molecule further showed an inhibition at 160 mg/kg in test [2] (dose 160 mg/kg p.o.) of 71%. In test [3], the “effect on vocalization threshold using a mechanical stimulus” value is “clear dose-dependent effect”.

A word on the ED50: it is the midpoint of the dose-response relation. One may read the inhibition as the percentage by which the read-out fell short of the control. A low value points to a weak effect.
